Results from patent US4918067A, “Heterocyclic substituted penicillin antibiotics” (Beecham Group p.l.c., priority 1986, dated 1990).

Experiments:
Assay type in all cases: cell-based
H. influenzae Ql = assay: in vitro MIC against H. influenzae Ql; conditions: Haemophilus influenzae
Experimental: (§1) The compound of the Example was tested in vitro against a number of microorganisms.

H. influenzae NEMCl = assay: in vitro MIC against H. influenzae NEMCl; conditions: Haemophilus influenzae
Experimental: as §1

E. Coli ESS = assay: in vitro MIC against E. Coli ESS; conditions: Escherichia coli
Experimental: as §1

B. catarrhalis Ravasio = assay: in vitro MIC against B. catarrhalis Ravasio; conditions: Moraxella catarrhalis
Experimental: as §1

S. aureus Oxford = assay: in vitro MIC against S. aureus Oxford; conditions: Staphylococcus aureus
Experimental: as §1

S. aureus Russell = assay: in vitro MIC against S. aureus Russell; conditions: Staphylococcus aureus
Experimental: as §1

S. aureus MB9 = assay: in vitro MIC against S. aureus MB9; conditions: Staphylococcus aureus
Experimental: as §1

S. epidermidis PHLN20 = assay: in vitro MIC against S. epidermidis PHLN20; conditions: Staphylococcus epidermidis
Experimental: as §1

S. pyogenes CN10 = assay: in vitro MIC against S. pyogenes CN10; conditions: Streptococcus pyogenes
Experimental: as §1

S. agalacticae 2798 = assay: in vitro MIC against S. agalacticae 2798
Experimental: as §1

S. pneumoniae 1761 = assay: in vitro MIC against S. pneumoniae 1761; conditions: Streptococcus pneumoniae
Experimental: as §1

SMILES: CC1(C)S[C@@H]2[C@H](NC(=O)/C(=N\OC3CCCCC3)c3cccc(N)n3)C(=O)N2[C@H]1C(=O)O [Example 1, Sodium 6-β-[2-(2-aminopyridin-6-yl) 2-(Z)-cyclohexyl-oxiyminoacetamido]penicillinate]
- MIC (H. influenzae Ql): 1 µg/mL
- MIC (H. influenzae NEMCl): 1 µg/mL
- MIC (E. Coli ESS): 0.12 µg/mL
- MIC (B. catarrhalis Ravasio): 0.5 µg/mL
- MIC (S. aureus Oxford): 0.5 µg/mL
- MIC (S. aureus Russell): 0.5 µg/mL
- MIC (S. aureus MB9): 2 µg/mL
- MIC (S. epidermidis PHLN20): 0.5 µg/mL
- MIC (S. pyogenes CN10): < 0.03 µg/mL
- MIC (S. agalacticae 2798): 0.25 µg/mL
- MIC (S. pneumoniae 1761): < 0.03 µg/mL
